Consider 26 compounds from PubChem BioAssay AID330 (DTP/NCI, 2004).

Values joined by “and” are separate entries in the source; they are usually repeats but may differ in a detail not shown here. Identical values can stand only once. Toxic doses and inconclusive results are not listed.

This assay deals with P388 leukemia ip, CD2F1 mice, survival T/C. The assay can be described thus: NCI In Vivo Anticancer Drug Screen. Data for tumor model P388 Leukemia (intraperitoneal) in CD2F1 (CDF1) mice. The following applies: endpoint: median survival time, higher = longer survival. The method, boiled down: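 Mice carrying the transplanted tumor received test compound or vehicle. Survival was recorded in each group, and the value is the treated-group measurement divided by that of the vehicle-treated control group.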

The mark [1] stands for this setting: dose: 100.0 mg/kg/injection, schedule: Q01DX005 (ip), vehicle: saline with Tween-80.
Setting [2] is: dose: 200.0 mg/kg/injection, schedule: Q01DX005 (ip), vehicle: saline with Tween-80.
[3] abbreviates: dose: 60.0 mg/kg/injection, schedule: Q01DX005 (ip), vehicle: Klucel (hydroxypropylcellulose) (HPC).
The mark [4] stands for this setting: dose: 120.0 mg/kg/injection, schedule: Q01DX005 (ip), vehicle: Klucel (hydroxypropylcellulose) (HPC).
Where [5] appears, read: dose: 240.0 mg/kg/injection, schedule: Q01DX005 (ip), vehicle: Klucel (hydroxypropylcellulose) (HPC).
[6] abbreviates: dose: 50.0 mg/kg/injection, schedule: Q01DX005 (ip), vehicle: Klucel (hydroxypropylcellulose) (HPC).
Where [7] appears, read: dose: 60.0 mg/kg/injection, schedule: Q01DX005 (ip), vehicle: saline with Tween-80.
The mark [8] stands for this setting: dose: 120.0 mg/kg/injection, schedule: Q01DX005 (ip), vehicle: saline with Tween-80.
The mark [9] stands for this setting: dose: 240.0 mg/kg/injection, schedule: Q01DX005 (ip), vehicle: saline with Tween-80.
The mark [10] stands for this setting: dose: 50.0 mg/kg/injection, schedule: Q01DX009 (ip), vehicle: saline with Tween-80.
[11] abbreviates: dose: 100.0 mg/kg/injection, schedule: Q01DX009 (ip), vehicle: saline with Tween-80.
Setting [12] is: dose: 200.0 mg/kg/injection, schedule: Q01DX009 (ip), vehicle: saline with Tween-80.
Where [13] appears, read: dose: 100.0 mg/kg/injection, schedule: Q01DX005 (ip), vehicle: Klucel (hydroxypropylcellulose) (HPC).
The mark [14] stands for this setting: dose: 200.0 mg/kg/injection, schedule: Q01DX005 (ip), vehicle: Klucel (hydroxypropylcellulose) (HPC).
The mark [15] stands for this setting: dose: 50.0 mg/kg/injection, schedule: Q01DX005 (ip), vehicle: saline with Tween-80.
The mark [16] stands for this setting: dose: 100.0 mg/kg/injection, schedule: Q04DX003 (ip), vehicle: saline.
[17] abbreviates: dose: 400.0 mg/kg/injection, schedule: Q04DX003 (ip), vehicle: saline.
The mark [18] stands for this setting: dose: 25.0 mg/kg/injection, schedule: Q04DX003 (ip), vehicle: saline.
Where [19] appears, read: dose: 50.0 mg/kg/injection, schedule: Q04DX003 (ip), vehicle: saline.
The mark [20] stands for this setting: dose: 50.0 mg/kg/injection, schedule: Q01DX009 (ip), vehicle: Klucel (hydroxypropylcellulose) (HPC).
Where [21] appears, read: dose: 100.0 mg/kg/injection, schedule: Q01DX009 (ip), vehicle: Klucel (hydroxypropylcellulose) (HPC).

As to `Cc1cc(C)c(C#N)c(SCC#CCSc2nc(C)cc(C)c2C#N)n1`, the T/C reads like this: (dose: 1.5 mg/kg/injection, schedule: Q01DX005 (ip), vehicle: saline with Tween-80) 103 % of control; (dose: 3.0 mg/kg/injection, schedule: Q01DX005 (ip), vehicle: saline with Tween-80) 103 % of control; (dose: 6.0 mg/kg/injection, schedule: Q01DX005 (ip), vehicle: saline with Tween-80) 94 % of control; (dose: 6.25 mg/kg/injection, schedule: Q01DX005 (ip), vehicle: saline with Tween-80) 89 % of control; under setting [1], 91 % of control; under setting [2], 91 % of control.

As for `OC(Cc1nc2ccccc2s1)c1ccco1` (centres undefined), the T/C is 101 % of control under setting [3], 103 % of control under setting [4] and 103 % of control under setting [5].

As for `COC(=O)/C=N/Nc1ccc(C)cc1`, the T/C by setting is: (dose: 25.0 mg/kg/injection, schedule: Q01DX009 (ip), vehicle: other) 89 % of control; (dose: 50.0 mg/kg/injection, schedule: Q01DX009 (ip), vehicle: other) 86 % of control; (dose: 100.0 mg/kg/injection, schedule: Q01DX009 (ip), vehicle: other) 96 % of control; (dose: 200.0 mg/kg/injection, schedule: Q01DX009 (ip), vehicle: other) 103 % of control; (dose: 400.0 mg/kg/injection, schedule: Q01DX009 (ip), vehicle: other) 108 % of control.

For the compound `CN(C)CCO/N=C1/CC[C@H]2[C@@H]3CC[C@H]4C[C@H](O)CC[C@]4(C)[C@H]3CC[C@]12C`, the T/C reads like this: (dose: 12.5 mg/kg/injection, schedule: Q01DX005 (ip), vehicle: Klucel (hydroxypropylcellulose) (HPC)) 104 % of control; (dose: 25.0 mg/kg/injection, schedule: Q01DX005 (ip), vehicle: Klucel (hydroxypropylcellulose) (HPC)) 95 % of control; under setting [6], 95 % of control.

For the compound `COc1ccc(/C=C/Cc2cc3c(cc2OC(C)=O)OCO3)cc1`, the T/C is 98 % of control under setting [7], 101 % of control under setting [8] and 93 % of control under setting [9].

As to `CCCC(O)(CC)/C(C)=N/O` (centres undefined), the T/C by setting is: under setting [10], 96 % of control; under setting [11], 91 % of control; under setting [12], 91 % of control.

As to `COC1(C)C(=O)N(C)C1c1ccccc1` (centres undefined), the T/C was 100 % of control under setting [7], 97 % of control under setting [8] and 100 % of control under setting [9].

For the compound `C=Cn1cc[n+](CC(=O)OC2CCC3C4CCC5=CC(=O)CCC5(C)C4CCC23C)c1` (centres undefined), the T/C reads like this: (dose: 3.75 mg/kg/injection, schedule: Q01DX005 (ip), vehicle: Klucel (hydroxypropylcellulose) (HPC)) 97 % of control; (dose: 7.5 mg/kg/injection, schedule: Q01DX005 (ip), vehicle: Klucel (hydroxypropylcellulose) (HPC)) 96 % of control.

`CN(C)C1C(O)C2Oc3c(cc(O)c4c3C(=O)c3cc5c(c(O)c3C4=O)C(N3CCCC3)CC(C)(O)C5)C(C)(O2)C1O` (centres undefined): the T/C (dose: 3.12 mg/kg/injection, schedule: Q01DX009 (ip), vehicle: other) is 113 % of control; the T/C (dose: 6.25 mg/kg/injection, schedule: Q01DX009 (ip), vehicle: other) was 116 % of control; the T/C (dose: 12.5 mg/kg/injection, schedule: Q01DX009 (ip), vehicle: other) was 122 % of control.

Take `COP1(=O)CC(=O)C(C)(C)N1C` (centres undefined): the T/C was 101 % of control under setting [6], 107 % of control under setting [13] and 111 % of control under setting [14].

With `CN(C)c1cc(=O)c2c(ccc3ccccc32)o1`, the T/C is 92 % of control under setting [10], 95 % of control under setting [11] and 95 % of control under setting [12].

Take `CCCCCCCC1SC(=S)NC1=O` (centres undefined): the T/C was 109 % of control (dose: 6.25 mg/kg/injection, schedule: Q04DX003 (ip), vehicle: other); 101 % of control (dose: 12.5 mg/kg/injection, schedule: Q04DX003 (ip), vehicle: other); 108 % of control (dose: 25.0 mg/kg/injection, schedule: Q04DX003 (ip), vehicle: other); 108 % of control (dose: 50.0 mg/kg/injection, schedule: Q04DX003 (ip), vehicle: other); 101 % of control (dose: 100.0 mg/kg/injection, schedule: Q04DX003 (ip), vehicle: other).

Consider `C=C(CCCC(C)(C)OCOCCOC)[Si](C)(C)C`, for which the T/C under setting [15] is 101 % of control, the T/C under setting [1] is 100 % of control and the T/C under setting [2] was 102 % of control.

Take `O=C1CSC(c2cccc(F)c2)N1CCN1C(=O)CSC1c1cccc(F)c1` (centres undefined): the T/C by setting is: under setting [15], 95 % of control; under setting [1], 98 % of control; under setting [2], 106 % of control.

For `N=C(N)N=Nc1ccc(O)cc1`, the T/C under setting [8] is 119 % of control.

Regarding `Fc1cccc(N=Nc2c(-c3ccccc3)nn(C(=S)S)c2-c2ccccc2)c1`, the T/C reads like this: under setting [15], 104 % of control; under setting [1], 101 % of control; under setting [2], 106 % of control.

On to `CCCCCCC[CH2][Sn]([Cl])([Cl])[Cl]`, for which the T/C is 98 % of control under setting [16]; 102 % of control (dose: 200.0 mg/kg/injection, schedule: Q04DX003 (ip), vehicle: saline); 104 % of control under setting [17].

As to `O=C(CCN1CC1)OCCOC(=O)CCN1CC1`, the T/C was 159 % of control under setting [18]; 150 % of control (dose: 50.0 mg/kg/injection, schedule: Q04DX003 (ip), vehicle: saline with Tween-80); 181 % of control under setting [19]; 166 % of control (dose: 75.0 mg/kg/injection, schedule: Q04DX003 (ip), vehicle: saline with Tween-80).

Take `CC(=O)N1CCc2cc([N+](=O)[O-])cc(Br)c21`: the T/C reads like this: (dose: 12.5 mg/kg/injection, schedule: Q01DX009 (ip), vehicle: distilled water + Tween-80) 107 % of control; (dose: 25.0 mg/kg/injection, schedule: Q01DX009 (ip), vehicle: distilled water + Tween-80) 98 % of control; (dose: 50.0 mg/kg/injection, schedule: Q01DX009 (ip), vehicle: distilled water + Tween-80) 91 % of control; (dose: 100.0 mg/kg/injection, schedule: Q01DX009 (ip), vehicle: distilled water + Tween-80) 98 % of control; (dose: 200.0 mg/kg/injection, schedule: Q01DX009 (ip), vehicle: distilled water + Tween-80) 91 % of control.

Regarding `CC(C)C1SCC(=O)N1N1C(=O)CSC1C(C)C` (centres undefined), the T/C is 94 % of control under setting [15], 93 % of control under setting [1] and 98 % of control under setting [2].

Regarding `O=C(NC(Cc1ccccc1)C(=O)O)OCCc1ccccn1` (centres undefined), the T/C is 104 % of control under setting [3], 92 % of control under setting [4] and 102 % of control under setting [5].

As to `O=C1NCCN1C(=O)Nc1ccc(Cl)c(Cl)c1`, the T/C runs as follows: under setting [20], 116 % of control; under setting [21], 108 % of control; (dose: 200.0 mg/kg/injection, schedule: Q01DX009 (ip), vehicle: Klucel (hydroxypropylcellulose) (HPC)) 110 % of control.

For `O=C(N/N=C/C(O)C1OC(=O)C(O)C1O)c1ccncc1` (centres undefined), the T/C is 105 % of control under setting [6], 101 % of control under setting [13] and 99 % of control under setting [14].

Regarding `CN1C(C(=O)Nc2nccs2)=C(O)c2ccccc2S1(=O)=O`, the T/C by setting is: under setting [7], 105 % of control; under setting [8], 98 % of control.

For `CC(=O)N1CCCC1C(=O)O` (centres undefined), the T/C under setting [18] is 102 % of control; the T/C under setting [19] is 112 % of control; the T/C under setting [16] was 105 % of control and 87 % of control; the T/C under setting [17] is 101 % of control.

With `O=C(/C=C/c1ccc(Cl)c(Cl)c1)C1CCCCC1`, the T/C under setting [20] is 103 % of control and the T/C under setting [21] is 99 % of control.
